# Data as given in ChEMBL document CHEMBL1201862, “PubChem BioAssay data set” (2004).
# Calls of active or inactive are those of the source.
# Legend:
# [1] = P. falciparum 3D7-ScDHODH growth inhibitors, dose response, SYBR Green, dry powder samples (AID 1159570); assay type: functional, cell-based;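 also: parasite growth measured after 72 hours of compound exposure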
# [2] = HepG2 cell cytotoxicity, dose response, cytotoxicity control, plate reader, dry powder samples (AID 1159569); assay type: functional, cell-based;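 also: inhibitor potency with signal falling toward the positive control level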
# [3] = P. falciparum Dd2 growth inhibitors, dose response, SYBR Green, cherry-picked samples (AID 1159567); assay type: functional, cell-based
# [4] = P. falciparum Dd2 growth inhibitors, dose response, SYBR Green, dry powder samples (AID 1159566); assay type: functional, cell-based;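 also: potency for growth inhibition with lower SYBR green DNA signal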
# [5] = Plasmodium falciparum Dd2 Sybr green parasite growth Measured in Cell-Based and Microorganism Combination System Using Plate Reader - 2153-01_Inhibitor_Dose_DryPowder_Activity_Set3.; assay type: functional
# [6] = P. falciparum ATP4 D1247Y mutant growth inhibitors, dose response, NITD609-resistant line, SYBR Green, dry powder (AID 1159571); assay type: functional, cell-based;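 also: parasites synchronized at ring stage by sorbitol before testing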
# [7] = Luminescence Cell-Based Dose Confirmation HTS to Identify Inhibitors of Polyadenylation.; assay type: functional
# [8] = target: T1, Corticotropin-releasing factor receptor 2/Corticotropin-releasing factor-binding protein (Homo sapiens, UniProt P24387+Q13324); experiment: activators of CRF receptor 2 with binding protein – uHTS hits, confirmation (AID 602473); assay type: functional; settings: read-out: EC50_Mean
# T1 sequence (Q13324 whole entry): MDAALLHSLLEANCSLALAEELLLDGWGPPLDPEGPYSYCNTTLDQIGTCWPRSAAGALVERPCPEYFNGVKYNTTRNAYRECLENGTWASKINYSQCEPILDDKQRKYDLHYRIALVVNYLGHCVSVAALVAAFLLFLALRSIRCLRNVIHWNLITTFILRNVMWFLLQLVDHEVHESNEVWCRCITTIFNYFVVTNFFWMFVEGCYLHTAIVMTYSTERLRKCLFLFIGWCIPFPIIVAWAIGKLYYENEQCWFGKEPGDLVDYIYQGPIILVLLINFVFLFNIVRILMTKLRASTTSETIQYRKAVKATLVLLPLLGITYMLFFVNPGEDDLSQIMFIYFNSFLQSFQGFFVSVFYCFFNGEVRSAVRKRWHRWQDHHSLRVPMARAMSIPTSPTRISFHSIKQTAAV
# T1 sequence (P24387 whole entry): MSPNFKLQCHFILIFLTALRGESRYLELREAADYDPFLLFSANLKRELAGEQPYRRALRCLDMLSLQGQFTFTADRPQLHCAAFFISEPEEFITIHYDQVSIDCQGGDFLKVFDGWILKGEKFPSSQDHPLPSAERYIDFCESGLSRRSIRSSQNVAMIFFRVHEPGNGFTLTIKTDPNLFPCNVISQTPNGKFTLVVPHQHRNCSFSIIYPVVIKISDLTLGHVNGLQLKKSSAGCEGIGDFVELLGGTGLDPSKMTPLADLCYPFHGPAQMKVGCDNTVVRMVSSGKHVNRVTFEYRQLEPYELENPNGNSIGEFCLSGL
# Cytochrome P450 2C19 [9] = target: T2, Cytochrome P450 2C19 (Homo sapiens, UniProt P33261); experiment: qHTS Assay for Inhibitors and Substrates of Cytochrome P450 2C19. [Related pubchem assays: 410 ]; assay type: ADME; settings: read-out: Potency
# Cytochrome P450 2C19 [10] = target: T2, Cytochrome P450 2C19; experiment: Cytochrome panel assay with activity outcomes. Panel member name: p450-cyp2c19 Compounds with AC50 equal or less than 10 uM are considered active; assay type: functional; settings: read-out: AC50
# Vero [11] = experiment: host cell cytotoxicity of antiviral hits, dose response, cytotoxicity control for West Nile virus antiviral project, secondary assay (AID 1650); assay type: functional; settings: Chlorocebus sabaeus
# [12] = target: T3, Heat shock factor protein 1 (Mus musculus, UniProt P38532); experiment: HSF1 potentiators in luciferase reporter cells, confirmation, cell-based, NIH3T3, luminescence, dose retest (AID 435004); assay type: functional;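 also: stress induced by proteasome inhibitor MG132 added 30 min after compound; luciferase reporter driven by HSF1 response element in NIH3T3 cells; actives raise luminescence as potentiators of the MG132 stress response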
# T3 sequence (P38532 whole entry): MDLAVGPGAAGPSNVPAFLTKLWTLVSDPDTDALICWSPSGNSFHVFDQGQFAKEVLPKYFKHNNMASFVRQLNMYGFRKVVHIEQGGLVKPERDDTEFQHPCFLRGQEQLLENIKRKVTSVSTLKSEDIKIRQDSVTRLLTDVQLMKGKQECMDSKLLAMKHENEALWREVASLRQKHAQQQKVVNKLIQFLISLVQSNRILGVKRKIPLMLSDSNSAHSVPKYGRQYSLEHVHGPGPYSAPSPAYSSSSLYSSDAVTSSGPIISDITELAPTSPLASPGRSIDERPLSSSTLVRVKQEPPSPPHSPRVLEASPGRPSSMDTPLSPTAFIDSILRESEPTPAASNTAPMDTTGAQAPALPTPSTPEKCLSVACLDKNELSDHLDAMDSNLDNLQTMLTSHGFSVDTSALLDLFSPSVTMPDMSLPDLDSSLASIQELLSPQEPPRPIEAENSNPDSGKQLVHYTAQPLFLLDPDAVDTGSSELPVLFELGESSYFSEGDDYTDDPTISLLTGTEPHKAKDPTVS
# [13] = target: T4, Replicative DNA helicase DnaB (Mycobacterium tuberculosis, UniProt P9WMR3); experiment: DnaB intein splicing inhibitors, dose response, biochemical, cell-free fluorescence (AID 449749); assay type: functional
# T4 sequence (P9WMR3 whole entry): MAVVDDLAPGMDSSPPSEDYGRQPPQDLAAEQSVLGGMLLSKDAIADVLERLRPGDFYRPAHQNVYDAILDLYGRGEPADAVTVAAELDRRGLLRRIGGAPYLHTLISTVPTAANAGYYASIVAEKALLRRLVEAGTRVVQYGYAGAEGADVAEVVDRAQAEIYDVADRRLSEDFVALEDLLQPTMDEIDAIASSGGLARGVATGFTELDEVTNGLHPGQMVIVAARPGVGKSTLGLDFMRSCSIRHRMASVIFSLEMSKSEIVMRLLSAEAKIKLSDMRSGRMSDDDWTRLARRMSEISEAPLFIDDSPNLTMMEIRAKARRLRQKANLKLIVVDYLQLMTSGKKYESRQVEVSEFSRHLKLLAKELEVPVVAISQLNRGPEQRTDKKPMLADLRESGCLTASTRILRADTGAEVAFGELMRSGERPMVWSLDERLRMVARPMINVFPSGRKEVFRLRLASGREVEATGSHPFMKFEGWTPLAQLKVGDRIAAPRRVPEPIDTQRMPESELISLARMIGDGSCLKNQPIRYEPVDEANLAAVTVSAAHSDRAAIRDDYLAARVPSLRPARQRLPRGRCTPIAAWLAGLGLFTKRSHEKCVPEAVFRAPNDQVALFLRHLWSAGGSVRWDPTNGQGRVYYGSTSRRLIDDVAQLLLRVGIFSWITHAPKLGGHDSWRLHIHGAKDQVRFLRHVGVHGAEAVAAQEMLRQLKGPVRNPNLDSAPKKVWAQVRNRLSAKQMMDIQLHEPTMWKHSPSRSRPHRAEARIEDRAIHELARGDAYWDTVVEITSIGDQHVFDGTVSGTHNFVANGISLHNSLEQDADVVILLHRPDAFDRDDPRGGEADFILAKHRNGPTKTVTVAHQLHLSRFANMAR
# Vero [14] = experiment: cells; assay type: functional, cell-based; settings: Chlorocebus sabaeus
# Protein RecA = target: T5, Protein RecA (Mycobacterium tuberculosis, UniProt P9WHJ3); experiment: Fluorescence Cell-Free Homogeneous Dose Retest to Identify Inhibitors of RecA-Intein Splicing Activity. [Related pubchem assays (depositor defined):AID2097, AID2223, AID489010, AID492950]; assay type: functional
# T5 sequence (P9WHJ3 whole entry): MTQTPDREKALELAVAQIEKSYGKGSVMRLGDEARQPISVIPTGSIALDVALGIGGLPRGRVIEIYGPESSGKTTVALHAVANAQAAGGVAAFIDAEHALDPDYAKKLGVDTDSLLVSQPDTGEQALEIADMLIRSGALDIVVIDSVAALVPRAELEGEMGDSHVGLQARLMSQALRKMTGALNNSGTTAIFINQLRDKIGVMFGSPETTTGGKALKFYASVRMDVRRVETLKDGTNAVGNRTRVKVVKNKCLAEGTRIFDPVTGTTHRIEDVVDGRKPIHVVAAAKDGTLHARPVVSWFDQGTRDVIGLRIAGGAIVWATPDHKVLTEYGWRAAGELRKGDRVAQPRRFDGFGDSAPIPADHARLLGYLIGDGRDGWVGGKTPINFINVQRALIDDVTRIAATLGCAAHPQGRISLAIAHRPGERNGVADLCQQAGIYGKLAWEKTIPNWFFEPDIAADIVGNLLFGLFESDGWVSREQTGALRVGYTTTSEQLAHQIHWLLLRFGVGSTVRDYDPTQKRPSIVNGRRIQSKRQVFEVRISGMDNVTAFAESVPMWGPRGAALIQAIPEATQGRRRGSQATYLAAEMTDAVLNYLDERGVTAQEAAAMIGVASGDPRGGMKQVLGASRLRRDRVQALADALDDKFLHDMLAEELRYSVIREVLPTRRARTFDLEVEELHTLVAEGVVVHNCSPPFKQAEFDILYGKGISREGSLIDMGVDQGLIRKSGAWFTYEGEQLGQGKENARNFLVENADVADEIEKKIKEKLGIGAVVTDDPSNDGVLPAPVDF
# Vero [15] = experiment: cells; assay type: functional; settings: Chlorocebus sabaeus
# Leucine aminopeptidase = target: T6, Leucine aminopeptidase (Plasmodium falciparum 3D7, UniProt Q8IL11); experiment: P. falciparum M17LAP inhibitors, primary screen, biochemical, fluorogenic H-Leu-NHMec substrate, 1536-well (AID 1619); assay type: functional
# T6 sequence (Q8IL11 whole entry): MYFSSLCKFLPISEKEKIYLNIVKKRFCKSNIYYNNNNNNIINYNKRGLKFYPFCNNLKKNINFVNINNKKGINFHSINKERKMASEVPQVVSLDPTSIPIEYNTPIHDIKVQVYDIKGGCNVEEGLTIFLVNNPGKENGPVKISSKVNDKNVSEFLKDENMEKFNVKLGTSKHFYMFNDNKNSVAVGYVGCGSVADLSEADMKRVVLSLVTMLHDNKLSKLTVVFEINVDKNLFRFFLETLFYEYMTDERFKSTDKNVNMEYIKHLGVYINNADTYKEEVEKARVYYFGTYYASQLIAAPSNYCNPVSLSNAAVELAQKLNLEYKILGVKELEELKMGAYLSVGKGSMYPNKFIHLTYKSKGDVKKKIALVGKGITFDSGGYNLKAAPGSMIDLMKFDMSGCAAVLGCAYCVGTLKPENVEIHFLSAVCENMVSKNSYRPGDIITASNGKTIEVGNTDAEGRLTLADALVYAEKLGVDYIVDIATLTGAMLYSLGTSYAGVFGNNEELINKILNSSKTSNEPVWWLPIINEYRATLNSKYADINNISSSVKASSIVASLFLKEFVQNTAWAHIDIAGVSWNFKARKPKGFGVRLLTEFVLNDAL
# Aspartyl aminopeptidase = target: T7, Aspartyl aminopeptidase (Plasmodium falciparum 3D7, UniProt Q8I2J3); experiment: Counterscreen for inhibitors of M1 and M17 aminopeptidases: QFRET-based biochemical high throughput dose response assay for inhibitors of the Plasmodium falciparum M18 Aspartyl Aminopeptidase (PFM18AAP). [Related PubChem assays: 1619 (Screening assay (M17LAP inhibitors).), 1445 (Screening assay (M1AAP inhibitors).)]
# T7 sequence (Q8I2J3 whole entry): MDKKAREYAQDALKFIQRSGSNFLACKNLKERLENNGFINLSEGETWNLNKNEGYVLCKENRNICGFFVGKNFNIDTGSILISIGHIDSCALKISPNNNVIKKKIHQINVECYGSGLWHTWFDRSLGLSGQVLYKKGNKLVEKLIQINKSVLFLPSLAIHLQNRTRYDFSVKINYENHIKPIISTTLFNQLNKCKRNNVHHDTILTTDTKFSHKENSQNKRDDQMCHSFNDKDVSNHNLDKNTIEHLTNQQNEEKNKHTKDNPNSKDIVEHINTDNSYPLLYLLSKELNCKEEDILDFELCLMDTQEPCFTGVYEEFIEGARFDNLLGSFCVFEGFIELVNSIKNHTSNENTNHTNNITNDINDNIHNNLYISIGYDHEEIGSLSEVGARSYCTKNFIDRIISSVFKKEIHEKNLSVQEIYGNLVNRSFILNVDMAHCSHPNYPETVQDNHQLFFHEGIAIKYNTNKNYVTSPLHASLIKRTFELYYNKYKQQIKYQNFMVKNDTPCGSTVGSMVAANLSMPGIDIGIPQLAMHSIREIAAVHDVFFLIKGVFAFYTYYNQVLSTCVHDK
# Procathepsin L = Procathepsin L (Homo sapiens, UniProt P07711); experiment: cathepsin L inhibitors, dose response, counter-screen for M1/M17 aminopeptidase inhibitor project, biochemical, QFRET, 1536-well (AID 2214)
# Chain of Procathepsin L (P07711 whole entry): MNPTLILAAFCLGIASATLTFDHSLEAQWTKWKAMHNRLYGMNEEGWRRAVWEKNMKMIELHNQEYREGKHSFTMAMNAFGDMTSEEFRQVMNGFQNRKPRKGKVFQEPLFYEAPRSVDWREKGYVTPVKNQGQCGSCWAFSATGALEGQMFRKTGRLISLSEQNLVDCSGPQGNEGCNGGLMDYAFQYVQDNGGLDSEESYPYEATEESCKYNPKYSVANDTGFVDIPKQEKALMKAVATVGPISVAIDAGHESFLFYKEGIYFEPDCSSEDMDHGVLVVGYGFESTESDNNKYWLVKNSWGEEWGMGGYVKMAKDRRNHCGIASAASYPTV
# T2 sequence (P33261 whole entry): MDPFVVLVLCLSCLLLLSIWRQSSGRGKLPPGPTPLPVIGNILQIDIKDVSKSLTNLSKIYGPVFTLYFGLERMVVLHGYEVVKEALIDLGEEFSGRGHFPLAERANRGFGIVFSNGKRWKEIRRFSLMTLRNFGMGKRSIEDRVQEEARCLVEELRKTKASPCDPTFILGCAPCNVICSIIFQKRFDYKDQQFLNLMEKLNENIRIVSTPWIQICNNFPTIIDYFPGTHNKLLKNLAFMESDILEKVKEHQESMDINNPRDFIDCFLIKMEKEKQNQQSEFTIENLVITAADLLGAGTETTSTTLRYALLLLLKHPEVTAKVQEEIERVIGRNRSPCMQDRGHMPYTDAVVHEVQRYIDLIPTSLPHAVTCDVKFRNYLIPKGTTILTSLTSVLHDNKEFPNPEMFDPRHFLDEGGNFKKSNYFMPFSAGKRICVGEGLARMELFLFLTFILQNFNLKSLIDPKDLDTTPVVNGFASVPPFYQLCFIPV
structure (smiles),measurement,setting,value
CCCNC(=O)N1[C@H](C#N)[C@H](c2ccc(-c3cccnc3)cc2)[C@H]1CO,AC50,[1],> 39 µM (inactive)
same,AC50,[2],> 100 µM (inactive)
same,AC50,[3],1.49 µM (active)
same,AC50,[4],0.822 µM (active)
same,AC50,[5],0.927 µM (active)
same,AC50,[6],1.16 µM (active)
C/C(=C\C=C(C#N)C#N)c1cc(C#N)c(N)o1,EC50,[7],11.1 µM (active)
same,EC50,[8],5.13 µM (active)
COc1cc2c(cc1C(F)(F)F)N(C(=O)Nc1cc(F)cc(-c3cccnc3)c1)CC2,AC50,Cytochrome P450 2C19 [9],1 µM (inconclusive)
same,AC50,Cytochrome P450 2C19 [10],10 µM (inconclusive)
Cc1ccccc1NC(=O)C(=Cc1ccc(C(=O)O)cc1)C(=O)Nc1ccccc1C,CC50,Vero [11],7.39 µM (active)
same,EC50,[12],29 µM (active)
same,AC50,[13],3.66 µM (active)
same,IC50,Vero [14],> 25 µM (active)
same,EC50,Protein RecA,5.08 µM (active)
same,CC50,Vero [15],14.7 µM (active)
CCc1cc2ccc(C)cc2nc1SCC(=O)Nc1cc(OC)c(OC)cc1C(=O)O,IC50,Leucine aminopeptidase,< 1 µM (active)
same,IC50,Aspartyl aminopeptidase,> 73.5 µM (not active)
same,IC50,Procathepsin L,> 59.6 µM (not active)
